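Method: 48-hour compound exposure of cells in 96-well plates, five concentrations, linear interpolation of endpoints. GI50 = concentration required for 50% inhibition of growth.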 Active and inactive are the calls of the source. Cut-off read from the data, not from the text of the source: active = GI50 up to about 1.1 µM and inactive = higher.
Tests used:
Test in all cases: inhibition of tumour cell growth, NCI panel, 48 h
CAKI-1 = tested on: CAKI-1
CCRF-CEM = tested on: CCRF-CEM
IGROV-1 = tested on: IGROV-1
OVCAR-3 = tested on: OVCAR-3
OVCAR-4 = tested on: OVCAR-4
RPMI-8226 = tested on: RPMI-8226
SF-268 = tested on: SF-268
SF-295 = tested on: SF-295
SK-MEL-28 = tested on: SK-MEL-28
SK-MEL-2 = tested on: SK-MEL-2
SK-MEL-5 = tested on: SK-MEL-5
SN12C = tested on: SN12C
SNB-75 = tested on: SNB-75
SW-620 = tested on: SW-620
UACC-257 = tested on: UACC-257
RXF 393 = tested on: RXF 393
HOP-92 = tested on: HOP-92

Measured: GI50

CC(=O)c1c(C)[n+]([O-])c2cc(C)c(C)cc2[n+]1[O-]
inactive: CAKI-1 > 100 µM | CCRF-CEM > 100 µM | IGROV-1 > 100 µM | OVCAR-3 > 100 µM | OVCAR-4 > 100 µM | RPMI-8226 > 100 µM | SF-268 > 100 µM | SF-295 > 100 µM | SK-MEL-28 > 100 µM | SK-MEL-2 > 100 µM | SK-MEL-5 > 100 µM | SN12C > 100 µM | SNB-75 > 100 µM | SW-620 > 100 µM | UACC-257 > 100 µM

Nc1nc2c(ncn2CCOC(c2ccccc2)P(=O)(O)O)c(=O)[nH]1 (stereo not drawn)
inactive: CAKI-1 > 100 µM | IGROV-1 > 100 µM | OVCAR-3 > 100 µM | RXF 393 > 100 µM | SF-268 > 100 µM | SF-295 > 100 µM | SK-MEL-28 > 100 µM | SK-MEL-2 > 100 µM | SK-MEL-5 > 100 µM | SN12C > 100 µM | SNB-75 > 100 µM | SW-620 > 100 µM | UACC-257 > 100 µM

COC(=O)C(=O)C(/C(=N/N)C(=O)Nc1ccccc1C(N)=O)c1nc2ccc([N+](=O)[O-])cc2nc1O (stereo not drawn)
inactive: CAKI-1 > 100 µM | CCRF-CEM > 100 µM | IGROV-1 > 100 µM | OVCAR-3 > 100 µM | OVCAR-4 > 100 µM | RPMI-8226 > 100 µM | SF-268 > 100 µM | SF-295 > 100 µM | SK-MEL-28 > 100 µM | SK-MEL-2 > 100 µM | SK-MEL-5 > 100 µM | SN12C > 100 µM | SW-620 > 100 µM | UACC-257 > 100 µM

O=C1OCc2nc3c(c(-c4ccccc4C(F)(F)F)c21)C(=O)OC3
inactive: CCRF-CEM > 100 µM | HOP-92 > 100 µM | IGROV-1 > 100 µM | OVCAR-3 > 100 µM | RPMI-8226 > 100 µM | RXF 393 > 100 µM | SF-268 > 100 µM | SF-295 > 100 µM | SK-MEL-28 > 100 µM | SK-MEL-2 > 100 µM | SK-MEL-5 > 100 µM | SN12C > 100 µM | SW-620 > 100 µM | UACC-257 > 100 µM

COc1ccccc1C1C(C(=O)Nc2ccccc2)=C(C)NC(C)=C1C(=O)Nc1ccccc1
inactive: CAKI-1 > 100 µM | HOP-92 44.2 µM | IGROV-1 34.4 µM | OVCAR-3 84.1 µM | OVCAR-4 54.8 µM | RPMI-8226 19.5 µM | RXF 393 80.2 µM | SF-268 > 100 µM | SF-295 76.4 µM | SK-MEL-28 > 100 µM | SK-MEL-2 32 µM | SK-MEL-5 31.8 µM | SN12C > 100 µM | SNB-75 > 100 µM | SW-620 93.8 µM | UACC-257 75.9 µM

O=[N+]([O-])c1ccc(C2N3CCCCC3[C@H]3CCCCN23)cc1 (stereo partly drawn)
inactive: CAKI-1 > 100 µM | CCRF-CEM > 100 µM | HOP-92 > 100 µM | IGROV-1 > 100 µM | OVCAR-3 > 100 µM | OVCAR-4 > 100 µM | RPMI-8226 > 100 µM | RXF 393 > 100 µM | SF-268 > 100 µM | SF-295 > 100 µM | SK-MEL-28 > 100 µM | SK-MEL-2 > 100 µM | SK-MEL-5 > 100 µM | SN12C > 100 µM | SNB-75 > 100 µM | SW-620 > 100 µM | UACC-257 > 100 µM

O=Cn1c2ccccc2c2ccccc21
inactive: CCRF-CEM > 100 µM | HOP-92 > 100 µM | IGROV-1 > 100 µM | OVCAR-3 > 100 µM | RPMI-8226 > 100 µM | RXF 393 > 100 µM | SF-268 > 100 µM | SF-295 > 100 µM | SK-MEL-28 > 100 µM | SK-MEL-2 > 100 µM | SK-MEL-5 > 100 µM | SN12C > 100 µM | SW-620 > 100 µM | UACC-257 > 100 µM

NC(=O)NNC(=O)CCn1[nH]c(=O)c(Cl)c(Cl)c1=O
inactive: CAKI-1 > 100 µM | CCRF-CEM > 100 µM | HOP-92 > 100 µM | IGROV-1 > 100 µM | OVCAR-3 > 100 µM | OVCAR-4 > 100 µM | RXF 393 > 100 µM | SF-268 > 100 µM | SF-295 > 100 µM | SK-MEL-28 > 100 µM | SK-MEL-2 > 100 µM | SK-MEL-5 > 100 µM | SN12C > 100 µM | SNB-75 > 100 µM | SW-620 > 100 µM | UACC-257 > 100 µM

COc1ccc(C2=Nc3ccccc3SC(C)C2)cc1 (stereo not drawn)
inactive: CAKI-1 > 100 µM | CCRF-CEM 33.4 µM | HOP-92 > 100 µM | IGROV-1 > 100 µM | OVCAR-3 > 100 µM | OVCAR-4 > 100 µM | RPMI-8226 17.3 µM | RXF 393 > 100 µM | SF-268 > 100 µM | SF-295 > 100 µM | SK-MEL-28 > 100 µM | SK-MEL-2 > 100 µM | SN12C > 100 µM | SNB-75 > 100 µM | SW-620 > 100 µM | UACC-257 > 100 µM

O=c1[nH]c2nc3ccccc3c(=O)n2nc1Cc1ccccc1
inactive: CAKI-1 > 100 µM | CCRF-CEM > 100 µM | IGROV-1 45.1 µM | OVCAR-3 44.2 µM | OVCAR-4 28.3 µM | RPMI-8226 > 100 µM | SF-268 > 100 µM | SF-295 > 100 µM | SK-MEL-28 > 100 µM | SK-MEL-2 > 100 µM | SK-MEL-5 > 100 µM | SN12C > 100 µM | SNB-75 > 100 µM | SW-620 > 100 µM | UACC-257 > 100 µM

O=C1OC2(OC2c2ccccc2)c2ccccc21 (stereo not drawn)
inactive: CCRF-CEM > 100 µM | HOP-92 > 100 µM | IGROV-1 > 100 µM | OVCAR-3 > 100 µM | RPMI-8226 > 100 µM | RXF 393 > 100 µM | SF-268 > 100 µM | SK-MEL-28 > 100 µM | SK-MEL-2 > 100 µM | SK-MEL-5 > 100 µM | SN12C > 100 µM | SNB-75 > 100 µM | SW-620 > 100 µM | UACC-257 > 100 µM

Cc1c2c(cc3c1C(=O)C(=O)C1=C3OC[C@@H]1C)C(C)(C)CCC2
inactive: CAKI-1 19.3 µM | CCRF-CEM 18 µM | HOP-92 21.3 µM | IGROV-1 19.7 µM | OVCAR-3 13.9 µM | OVCAR-4 17.9 µM | RXF 393 17.9 µM | SF-268 14.1 µM | SF-295 14.5 µM | SK-MEL-28 14 µM | SK-MEL-2 6.15 µM | SK-MEL-5 13.3 µM | SN12C 16.8 µM | SNB-75 26.1 µM | SW-620 15.1 µM | UACC-257 15.1 µM

COc1ccc(C2C(Cl)C(=O)N2n2cnc3ccccc3c2=O)cc1 (stereo not drawn)
inactive: CAKI-1 82.8 µM | CCRF-CEM > 10 µM | IGROV-1 > 100 µM | OVCAR-3 85.7 µM | OVCAR-4 33.3 µM | RPMI-8226 33.4 µM | RXF 393 30.8 µM | SF-268 87.9 µM | SF-295 > 100 µM | SK-MEL-28 > 100 µM | SK-MEL-2 > 100 µM | SK-MEL-5 87.1 µM | SN12C > 100 µM | SNB-75 29.4 µM | SW-620 > 100 µM | UACC-257 > 100 µM

CCOc1ccccc1NC(=O)CC1C(=O)Nc2ccccc2[S+]1[O-] (stereo not drawn)
inactive: CAKI-1 > 100 µM | CCRF-CEM 39.8 µM | HOP-92 43.1 µM | IGROV-1 51.5 µM | OVCAR-3 39.5 µM | OVCAR-4 32.4 µM | RPMI-8226 11.4 µM | RXF 393 50 µM | SF-268 > 100 µM | SF-295 > 100 µM | SK-MEL-28 > 100 µM | SK-MEL-2 > 100 µM | SK-MEL-5 54.8 µM | SN12C > 100 µM | SNB-75 > 100 µM | SW-620 > 100 µM | UACC-257 > 100 µM

CCCCNC1CCCCC[C@H]1O (stereo partly drawn)
inactive: CAKI-1 > 100 µM | CCRF-CEM > 100 µM | HOP-92 > 100 µM | IGROV-1 > 100 µM | OVCAR-3 > 100 µM | OVCAR-4 > 100 µM | RPMI-8226 > 100 µM | RXF 393 > 100 µM | SF-268 > 100 µM | SF-295 > 100 µM | SK-MEL-28 > 100 µM | SK-MEL-2 > 100 µM | SK-MEL-5 > 100 µM | SN12C > 100 µM | SNB-75 > 100 µM | SW-620 > 100 µM | UACC-257 > 100 µM

C/C(=C\C(C)COCc1ccccc1)[C@H](COCc1ccccc1)OCc1ccccc1 (stereo partly drawn)
inactive: CCRF-CEM 68.1 µM | HOP-92 10.4 µM | IGROV-1 > 100 µM | OVCAR-3 > 100 µM | OVCAR-4 63.2 µM | RPMI-8226 50.1 µM | RXF 393 26.9 µM | SF-268 76.2 µM | SF-295 > 100 µM | SK-MEL-28 > 100 µM | SK-MEL-2 > 100 µM | SK-MEL-5 37.6 µM | SN12C > 100 µM | SNB-75 80.2 µM | SW-620 > 100 µM

CCC1C(=O)OCc2c1cc1n(c2=O)Cc2ccccc2-1 (stereo not drawn)
inactive: CAKI-1 34.2 µM | CCRF-CEM > 100 µM | HOP-92 > 100 µM | IGROV-1 > 100 µM | OVCAR-3 > 100 µM | OVCAR-4 > 100 µM | RPMI-8226 > 100 µM | RXF 393 > 100 µM | SF-268 > 100 µM | SF-295 > 100 µM | SK-MEL-28 > 100 µM | SK-MEL-2 > 100 µM | SK-MEL-5 > 100 µM | SN12C > 100 µM | SNB-75 > 100 µM | SW-620 > 100 µM | UACC-257 > 100 µM

O=C1CCc2ccc(O)c(c2)Oc2ccc(cc2)[C@@H]2O[C@@H]2CO1
inactive: CAKI-1 29.6 µM | CCRF-CEM 76 µM | HOP-92 23.7 µM | IGROV-1 17.8 µM | OVCAR-3 32.8 µM | OVCAR-4 41 µM | RPMI-8226 28.9 µM | SF-268 > 10 µM | SF-295 56.1 µM | SK-MEL-28 49.2 µM | SK-MEL-2 34 µM | SK-MEL-5 23.6 µM | SN12C 62.4 µM | SNB-75 37.9 µM | SW-620 53.6 µM | UACC-257 48.4 µM

Source: ChEMBL document CHEMBL1201862, “PubChem BioAssay data set” (2004)
